According to publication PMC11926411 (Cell Structure and Function, 2019):

Key:
Ras-PI3K complex = type: cell-based; details: Cos-1 cells, VN-H-Ras G12V, time-lapse confocal after Vps34-IN1; n=12
Protocol: Imaging of BiFC and FRET, and their data analysis were performed essentially as described previously ([Fujioka et al., 2013]; [Ohba et al., 2003]; [Tsutsumi et al., 2009]). In brief, cells plated on a collagen-coated, 35-mm-diameter glass-base dish were transfected with expression vectors. After 24 hours, cells were serum-starved in phenol red-free DMEM/F12 (Thermo Fisher Scientific) for 4 hours and placed in a stage-top incubation chamber (Live Cell Instrument, Soul, Korea) that was maintained at 37°C. Beginning at 10 min, cells were stimulated with 100 ng/ml EGF. BiFC images were acquired using a spinning disk mode, whereas FRET images were obtained using epifluorescence mode. To represent FRET efficacy, the FRET/CFP emission ratio was calculated as the quotient of background-subtracted FRET and CFP images. To stabilize jittery image stacks of time-lapse data set, ‘Image Stabilizer’ plug-in of ImageJ (https://imagej.nih.gov/ij) was used. MetaMorph software converts image stacks of time-lapse data set into one QuickTime movie.
Vesicles positive for a BiFC signal (from Ras-PI3K complex) or TagRFP (EEA-1) were extracted with the use of the ‘Top Hat’ module of MetaMorph software, and colocalization of the Ras-PI3K complex with EEA-1 was quantified with the use of the ‘measure colocalization’ function of the software.

class III PI3K Vps34 = test: Time-lapse confocal imaging of endosomal markers after Vps34 inhibition; details: Cos-1 cells, Vps34-IN1 treatment
Description: Cells were imaged with an IX-83 microscope (Olympus, Tokyo, Japan) equipped with a BioPoint MAC6000 filter and shutter control unit (Ludl Electronic Products, Hawthorne, NY, USA), an automated XY-stage (Chuo Precision Industrial, Tokyo, Japan), an sDISK spinning disk confocal microscope (Andor Technology, Belfast, UK), and a Rolera EM-C^2 electron multiplying cooled charge-coupled device camera (QImaging, Surrey, BC, Canada). For epifluorescence microscopy, cells were illuminated with a SOLA Light Engine (Lumencor, Beaverton, OR, USA) and the following excitation and emission filters were used: FF02-438/24 and FF01-483/32 (Semrock, Rochester, NY, USA) for CFP; BP470-490 and BP510-550 (Olympus) for FITC; FF02-438/24 and FF01-542/27 for FRET; and BP520-550 and BA580IF (Olympus) for Alexa Fluor 594 and mRFP. For spinning-disk confocal imaging, cells were illuminated with a four-line (405, 488, 561, and 633 nm) laser module (Spectral Applied Research, Hamilton, ON, Canada) and the following emission filters were used: FF01-483/32 for CFP, FF01-542/27 for FRET, and BA580IF for TagRFP. Typical exposure times for 2×2 binning were 0.3 s. […]
Twenty-four hours after transfection, the cells were subjected to time-lapse confocal microscopy. […] P<0.0001 compared with before treatment, as calculated by repeated-measures ANOVA.

CC(C)(O)CNc1ncc(-c2ccnc(Nc3ccnc(Cl)c3)n2)c(CC2CC2)n1 [Vps34-IN1]
Amount of the Ras-PI3K complex in the endosome (BiFC) (Ras-PI3K complex): partially, but significantly reduced
Endosomal localization of CFP-tagged Rab5 (class III PI3K Vps34): accumulated in the endosome
Fluorescence signal in endosomes of RFP-tagged EEA-1 (class III PI3K Vps34): dramatically dispersed
